According to ChEMBL document CHEMBL5104172, “Design, synthesis, and antibacterial activity of derivatives of Tryptophanyl-tRNA synthetase inhibitor indolmycin” (Eur J Med Chem, 2022):
Converted amounts (≈) assume the structure as drawn.

Key:
Assay type in all cases: functional
Staphylococcus aureus [1] = assay: Antibacterial activity against methicillin-sensitive Staphylococcus aureus MSSA17-3 measured by liquid dilution method
Staphylococcus aureus [2] = assay: Antibacterial activity against methicillin-resistant Staphylococcus aureus ATCC 33591 measured by liquid dilution method
Staphylococcus aureus [3] = assay: Antibacterial activity against vancomycin-intermediate Staphylococcus aureus ATCC 700699 measured by liquid dilution method
Staphylococcus aureus [4] = assay: Antibacterial activity against methicillin-resistant Staphylococcus aureus ATCC 43300 measured by liquid dilution method
Enterococcus faecium [5] = assay: Antibacterial activity against Enterococcus faecium EFM17-1 measured by liquid dilution method
[6] = system: Staphylococcus epidermidis; assay: Antibacterial activity against methicillin-resistant Staphylococcus epidermidis MRSE17-2 measured by liquid dilution method
[7] = system: Staphylococcus epidermidis; assay: Antibacterial activity against methicillin-resistant Staphylococcus epidermidis MRSE17-3 measured by liquid dilution method
Staphylococcus aureus [8] = assay: Antibacterial activity against methicillin-resistant Staphylococcus aureus MRSA17-1 measured by liquid dilution method
Enterococcus faecalis [9] = assay: Antibacterial activity against Enterococcus faecalis ATCC 29212 measured by liquid dilution method
Staphylococcus aureus [10] = assay: Antibacterial activity against vancomycin-intermediate Staphylococcus aureus ATCC 700788 measured by liquid dilution method
[11] = system: Staphylococcus epidermidis; assay: Antibacterial activity against methicillin-sensitive Staphylococcus epidermidis MSSE17-1 measured by liquid dilution method
Staphylococcus aureus [12] = assay: Antibacterial activity against methicillin-sensitive Staphylococcus aureus MSSA17-2 measured by liquid dilution method
Staphylococcus aureus [13] = assay: Antibacterial activity against methicillin-resistant Staphylococcus aureus MRSA17-5 measured by liquid dilution method
[14] = system: Staphylococcus epidermidis; assay: Antibacterial activity against methicillin-resistant Staphylococcus epidermidis MRSE17-6 measured by liquid dilution method
Enterococcus faecium [15] = assay: Antibacterial activity against Enterococcus faecium EFM17-2 measured by liquid dilution method
[16] = system: Staphylococcus epidermidis; assay: Antibacterial activity against methicillin-sensitive Staphylococcus epidermidis MSSE17-3 measured by liquid dilution method
Staphylococcus aureus [17] = assay: Antibacterial activity against methicillin-resistant Staphylococcus aureus MRSA17-2 measured by liquid dilution method
Enterococcus faecalis [18] = assay: Antibacterial activity against Enterococcus faecalis EFA17-1 measured by liquid dilution method
Staphylococcus aureus [19] = assay: Antibacterial activity against methicillin-sensitive Staphylococcus aureus MSSA17-1 measured by liquid dilution method
[20] = system: Staphylococcus epidermidis; assay: Antibacterial activity against methicillin-resistant Staphylococcus epidermidis MRSE17-1 measured by liquid dilution method
Staphylococcus aureus [21] = assay: Antibacterial activity against methicillin-resistant Staphylococcus aureus MRSA17-6 measured by liquid dilution method
[22] = system: Staphylococcus epidermidis; assay: Antibacterial activity against methicillin-resistant Staphylococcus epidermidis MRSE17-4 measured by liquid dilution method
Staphylococcus aureus [23] = assay: Antibacterial activity against methicillin-resistant Staphylococcus aureus MRSA17-3 measured by liquid dilution method
[24] = system: Staphylococcus epidermidis; assay: Antibacterial activity against methicillin-sensitive Staphylococcus epidermidis MSSE17-2 measured by liquid dilution method
Staphylococcus aureus [25] = assay: Antibacterial activity against Staphylococcus aureus ATCC 29213 measured by liquid dilution method

Row | Structure (SMILES) | MIC (Staphylococcus aureus [1]) | MIC (Staphylococcus aureus [2]) | MIC (Staphylococcus aureus [3]) | MIC (Staphylococcus aureus [4]) | MIC (Enterococcus faecium [5]) | MIC [6] | MIC [7] | MIC (Staphylococcus aureus [8]) | MIC (Enterococcus faecalis [9]) | MIC (Staphylococcus aureus [10]) | MIC [11] | MIC (Staphylococcus aureus [12]) | MIC (Staphylococcus aureus [13]) | MIC [14] | MIC (Enterococcus faecium [15]) | MIC [16] | MIC (Staphylococcus aureus [17]) | MIC (Enterococcus faecalis [18]) | MIC (Staphylococcus aureus [19]) | MIC [20] | further results
1 | CNC1=NC(=O)[C@@H]([C@@H](C)c2c[nH]c3c(F)cccc23)O1 | 4 µg/mL (≈ 14.5 µM) | > 128 µg/mL | > 128 µg/mL | > 128 µg/mL | > 128 µg/mL | 1 µg/mL (≈ 3.63 µM) | > 128 µg/mL | 8 µg/mL (≈ 29.1 µM) | > 128 µg/mL | > 128 µg/mL | 32 µg/mL (≈ 116 µM) | 4 µg/mL (≈ 14.5 µM) | 8 µg/mL (≈ 29.1 µM) | 2 µg/mL (≈ 7.27 µM) | > 128 µg/mL | > 128 µg/mL | 8 µg/mL (≈ 29.1 µM) | > 128 µg/mL | 8 µg/mL (≈ 29.1 µM) | 4 µg/mL (≈ 14.5 µM) | MIC (Staphylococcus aureus [21]): 8 µg/mL (≈ 29.1 µM); MIC [22]: > 128 µg/mL; MIC (Staphylococcus aureus [23]): 8 µg/mL (≈ 29.1 µM); MIC [24]: 2 µg/mL (≈ 7.27 µM); MIC (Staphylococcus aureus [25]): > 128 µg/mL
2 | CNC1=NC(=O)[C@@H]([C@@H](C)c2c[nH]c3cccc(C)c23)O1 | > 128 µg/mL | > 128 µg/mL | > 128 µg/mL | > 128 µg/mL | > 128 µg/mL | > 128 µg/mL | > 128 µg/mL | > 128 µg/mL | > 128 µg/mL | > 128 µg/mL | > 128 µg/mL | > 128 µg/mL | > 128 µg/mL | > 128 µg/mL | > 128 µg/mL | > 128 µg/mL | > 128 µg/mL | > 128 µg/mL | > 128 µg/mL | > 128 µg/mL | MIC (Staphylococcus aureus [21]): > 128 µg/mL; MIC [22]: > 128 µg/mL; MIC (Staphylococcus aureus [23]): > 128 µg/mL; MIC [24]: > 128 µg/mL; MIC (Staphylococcus aureus [25]): > 128 µg/mL
3 | CNC1=NC(=O)[C@H]([C@H](C)c2c[nH]c3c(F)cccc23)O1 | 0.5 µg/mL (≈ 1.82 µM) | 8 µg/mL (≈ 29.1 µM) | 2 µg/mL (≈ 7.27 µM) | 4 µg/mL (≈ 14.5 µM) | 2 µg/mL (≈ 7.27 µM) | 0.25 µg/mL (≈ 0.908 µM) | 0.5 µg/mL (≈ 1.82 µM) | 0.5 µg/mL (≈ 1.82 µM) | 2 µg/mL (≈ 7.27 µM) | 4 µg/mL (≈ 14.5 µM) | 2 µg/mL (≈ 7.27 µM) | 0.5 µg/mL (≈ 1.82 µM) | 1 µg/mL (≈ 3.63 µM) | 0.5 µg/mL (≈ 1.82 µM) | 4 µg/mL (≈ 14.5 µM) | 4 µg/mL (≈ 14.5 µM) | 0.5 µg/mL (≈ 1.82 µM) | 2 µg/mL (≈ 7.27 µM) | 1 µg/mL (≈ 3.63 µM) | 0.5 µg/mL (≈ 1.82 µM) | MIC (Staphylococcus aureus [21]): 1 µg/mL (≈ 3.63 µM); MIC [22]: 0.5 µg/mL (≈ 1.82 µM); MIC (Staphylococcus aureus [23]): 1 µg/mL (≈ 3.63 µM); MIC [24]: 4 µg/mL (≈ 14.5 µM); MIC (Staphylococcus aureus [25]): 8 µg/mL (≈ 29.1 µM)
4 | CNC1=NC(=O)[C@@H]([C@@H](C)c2c[nH]c3cccc(Br)c23)O1 | 128 µg/mL (≈ 381 µM) | 128 µg/mL (≈ 381 µM) | 128 µg/mL (≈ 381 µM) | 128 µg/mL (≈ 381 µM) | > 128 µg/mL | 128 µg/mL (≈ 381 µM) | > 128 µg/mL | 128 µg/mL (≈ 381 µM) | > 128 µg/mL | 128 µg/mL (≈ 381 µM) | 128 µg/mL (≈ 381 µM) | 128 µg/mL (≈ 381 µM) | 128 µg/mL (≈ 381 µM) | 128 µg/mL (≈ 381 µM) | > 128 µg/mL | 128 µg/mL (≈ 381 µM) | 128 µg/mL (≈ 381 µM) | > 128 µg/mL | 128 µg/mL (≈ 381 µM) | > 128 µg/mL | MIC (Staphylococcus aureus [21]): 128 µg/mL (≈ 381 µM); MIC [22]: 128 µg/mL (≈ 381 µM); MIC (Staphylococcus aureus [23]): 64 µg/mL (≈ 190 µM); MIC [24]: 64 µg/mL (≈ 190 µM); MIC (Staphylococcus aureus [25]): > 128 µg/mL
5 | CNC1=NC(=O)[C@H]([C@H](C)c2c[nH]c3cc(F)ccc23)O1 | 8 µg/mL (≈ 29.1 µM) | 16 µg/mL (≈ 58.1 µM) | 4 µg/mL (≈ 14.5 µM) | 8 µg/mL (≈ 29.1 µM) | > 128 µg/mL | 16 µg/mL (≈ 58.1 µM) | 4 µg/mL (≈ 14.5 µM) | 8 µg/mL (≈ 29.1 µM) | > 128 µg/mL | 8 µg/mL (≈ 29.1 µM) | 8 µg/mL (≈ 29.1 µM) | 16 µg/mL (≈ 58.1 µM) | 16 µg/mL (≈ 58.1 µM) | 16 µg/mL (≈ 58.1 µM) | > 128 µg/mL | 8 µg/mL (≈ 29.1 µM) | 8 µg/mL (≈ 29.1 µM) | > 128 µg/mL | 16 µg/mL (≈ 58.1 µM) | 16 µg/mL (≈ 58.1 µM) | MIC (Staphylococcus aureus [21]): 8 µg/mL (≈ 29.1 µM); MIC [22]: 16 µg/mL (≈ 58.1 µM); MIC (Staphylococcus aureus [23]): 8 µg/mL (≈ 29.1 µM); MIC [24]: 8 µg/mL (≈ 29.1 µM); MIC (Staphylococcus aureus [25]): 16 µg/mL (≈ 58.1 µM)
